Structures can show the parent of a compound that is named as a salt. Where two headings read alike, the source gives them in different places.
Columns and labels:
AT1 receptor = AT1 receptor (Homo sapiens (Human), UniProt P30556); assay: AT1 receptor binding inhibitory action
PPARγ = PPARγ (Homo sapiens (Human), UniProt P37231); assay: PPARγ activating action (luciferase reporter in PPARγ:RXRα:4ERPP/CHO-K1 cells); format: cell-based; conditions: CHO-K1, 24 h, read-out: PPARγ activating action (activation % (1 μM))
Chain of PPARγ (P37231 29-505): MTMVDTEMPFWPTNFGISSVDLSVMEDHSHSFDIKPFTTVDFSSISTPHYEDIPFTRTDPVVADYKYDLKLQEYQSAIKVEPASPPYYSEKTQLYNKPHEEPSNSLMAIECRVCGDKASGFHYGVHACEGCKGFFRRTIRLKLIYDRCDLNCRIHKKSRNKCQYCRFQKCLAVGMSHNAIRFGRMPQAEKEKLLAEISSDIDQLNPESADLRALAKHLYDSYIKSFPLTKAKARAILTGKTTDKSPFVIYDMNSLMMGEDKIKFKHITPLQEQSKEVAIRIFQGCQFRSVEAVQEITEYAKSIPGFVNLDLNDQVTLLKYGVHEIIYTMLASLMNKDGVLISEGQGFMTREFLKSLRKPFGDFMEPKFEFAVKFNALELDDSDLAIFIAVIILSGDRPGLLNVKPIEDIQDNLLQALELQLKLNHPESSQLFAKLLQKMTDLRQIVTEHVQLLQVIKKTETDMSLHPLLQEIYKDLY
Chain of PPARγ (P19793 whole entry partner): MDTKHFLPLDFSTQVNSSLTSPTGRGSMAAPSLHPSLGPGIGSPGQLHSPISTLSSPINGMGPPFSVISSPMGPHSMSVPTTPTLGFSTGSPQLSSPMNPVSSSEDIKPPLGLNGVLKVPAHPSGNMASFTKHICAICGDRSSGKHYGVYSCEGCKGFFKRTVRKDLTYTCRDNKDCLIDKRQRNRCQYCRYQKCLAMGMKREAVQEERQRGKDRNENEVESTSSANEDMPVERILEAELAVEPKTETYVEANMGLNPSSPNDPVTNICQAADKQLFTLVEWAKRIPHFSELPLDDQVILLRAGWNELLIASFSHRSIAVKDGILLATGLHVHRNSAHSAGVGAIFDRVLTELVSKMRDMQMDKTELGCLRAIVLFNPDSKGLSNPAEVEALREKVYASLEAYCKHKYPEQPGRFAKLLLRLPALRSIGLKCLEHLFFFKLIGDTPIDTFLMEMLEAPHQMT
Experimental: Then the medium was removed from the 96-well half area white plate, 45 μl of Ham's F12 medium containing 0.1% fatty acid-free bovine serum albumin (BSA) and 5 μl of test compound were added, and the cells were cultured in a CO2 gas incubator at 37° C. for 1 day. The medium was removed and 20 μl of PicaGene 7.5 [manufactured by Dainippon Ink and Chemicals Corporation, Japan] diluted 2-fold with HBSS (HANKS' BALANCED SALT SOLUTION) [manufactured by BIO WHITTAKER, USA] was added. After stirring, the luciferase activity was determined using 1420 ARVO Multilabel Counter [manufactured by PerkinElmer, USA]. […] A CHO-K1 cell cultured in a 150 cm^2 cell culture flask [manufactured by Corning Costar Corporation, USA] containing Ham's F12 medium [manufactured by INVITROGEN, USA] supplemented with 10% fetal bovine serum [manufactured by INVITROGEN, USA] was scraped by treating with 0.5 g/L trypsin-0.2 g/L EDTA (ethylenediaminetetraacetic acid) [manufactured by Life Technologies, Inc., USA], and then the cell was washed with PBS (Phosphate-buffered saline) [manufactured by INVITROGEN, USA], centrifuged (1000 rpm, 5 minutes) and suspended in PBS. Subsequently, DNA was introduced into the cell under the conditions shown below using GENE PULSER [manufactured by Bio-Rad Laboratories, USA]. […] Subsequently, the cell was transferred into a F12 medium containing 10% fetal bovine serum and cultured for 24 hours, and then the cell was scraped again and centrifuged, and then suspended in Ham's F12 medium containing 10% fetal bovine serum supplemented with 500 μg/ml of Geneticin [manufactured by INVITROGEN, USA] and 250 μg/ml of Zeocin [manufactured by INVITROGEN, USA]. The obtained suspension was diluted to the density of 10^4 cells/ml and inoculated in a 96-well plate [manufactured by Corning Costar Corporation, USA], which was cultured in a CO2 gas incubator at 37° C., whereby obtaining a Geneticin- and Zeocin-resistant transformant.

[1] = test compound 1 μM, luciferase activity relative to control compound X (1 μM) = 100%, non-administration group = 0%

Chain of AT1 receptor (P30556 whole entry): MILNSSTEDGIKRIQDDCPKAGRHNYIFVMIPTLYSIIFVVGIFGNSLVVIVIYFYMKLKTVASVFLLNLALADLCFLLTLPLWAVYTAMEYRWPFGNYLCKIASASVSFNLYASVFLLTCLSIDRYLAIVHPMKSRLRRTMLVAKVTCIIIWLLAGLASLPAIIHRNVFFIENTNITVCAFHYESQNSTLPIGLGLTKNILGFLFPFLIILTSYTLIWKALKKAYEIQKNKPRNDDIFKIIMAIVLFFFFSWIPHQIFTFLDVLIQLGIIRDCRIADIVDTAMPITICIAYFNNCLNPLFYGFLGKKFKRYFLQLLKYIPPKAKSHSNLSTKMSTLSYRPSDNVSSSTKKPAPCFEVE

| IC50 (AT1 receptor) [nM] | activation at 1 µM (PPARγ; [1]) [%] | Structure (SMILES) | activation at 1 µM (PPARγ) [%] |
| --- | --- | --- | --- |
| 1.5 | 36 | O=C(Cn1c(=O)c2cc(CC(F)(F)F)sc2n(Cc2ccc(-c3ccccc3-c3noc(=O)[nH]3)cc2)c1=O)C1CCCCC1 [Ex. 136, 3-(2-cyclohexyl-2-oxoethyl)-1-{[2′-(5-oxo-4,5-dihydro-1,2,4-oxadiazol-3-yl)biphenyl-4-yl]methyl}-6-(2,2,2-trifluoroethyl)thieno[2,3-d]pyrimidine-2,4(1H,3H)-dione] | – |
| 1.7 | 26 | CCc1cc2c(=O)n(CC(=O)c3nc4ccccc4n3C)c(=O)n(Cc3ccc(-c4ccccc4-c4noc(=O)[nH]4)cc3)c2s1 [Ex. 140, 6-ethyl-3-[2-(1-methyl-1H-benzoimidazol-2-yl)-2-oxoethyl]-1-{[2′-(5-oxo-4,5-dihydro-1,2,4-oxadiazol-3-yl)biphenyl-4-yl]methyl}thieno[2,3-d]pyrimidine-2,4(1H,3H)-dione] | – |
| 1.5 | 38 | CCc1cc2c(=O)n(C/C(=N/OC)C(C)(C)C)c(=O)n(Cc3ccc(-c4ccccc4-c4noc(=O)[nH]4)cc3)c2s1 [Ex. 142, 6-ethyl-3-[2-(methoxyimino)-3,3-dimethylbutyl]-1-{[2′-(5-oxo-4,5-dihydro-1,2,4-oxadiazol-3-yl)biphenyl-4-yl]methyl}thieno[2,3-d]pyrimidine-2,4(1H,3H)-dione] | – |
| 1.4 | 45 | CC(C)(C)C(O)Cn1c(=O)c2cc(C3CC3)sc2n(Cc2ccc(-c3ccccc3-c3noc(=O)[nH]3)cc2)c1=O (centres unmarked) [Ex. 143, 6-cyclopropyl-3-(2-hydroxy-3,3-dimethylbutyl)-1-{[2′-(5-oxo-4,5-dihydro-1,2,4-oxadiazol-3-yl)biphenyl-4-yl]methyl}thieno[2,3-d]pyrimidine-2,4(1H,3H)-dione] | – |
| 1.7 | 40 | CCc1cc2c(=O)n(CC3(C)COC3)c(=O)n(Cc3ccc(-c4ccccc4-c4noc(=O)[nH]4)cc3)c2s1 [Ex. 144, 6-ethyl-3-[(3-methyloxetan-3-yl)methyl]-1-{[2′-(5-oxo-4,5-dihydro-1,2,4-oxadiazol-3-yl)biphenyl-4-yl]methyl}thieno[2,3-d]pyrimidine-2,4(1H,3H)-dione] | – |
| 1.7 | 36 | CCc1cc2c(=O)n(CC3(O)CCOCC3)c(=O)n(Cc3ccc(-c4ccccc4-c4noc(=O)[nH]4)cc3)c2s1 [Ex. 145, 6-ethyl-3-[(4-hydroxytetrahydro-2H-pyran-4-yl)methyl]-1-{[2′-(5-oxo-4,5-dihydro-1,2,4-oxadiazol-3-yl)biphenyl-4-yl]methyl}thieno[2,3-d]pyrimidine-2,4(1H,3H)-dione] | – |
| 1.5 | 33 | CCc1cc2c(=O)n(CC(=O)C(C)(C)COC(C)=O)c(=O)n(Cc3ccc(-c4ccccc4-c4noc(=O)[nH]4)cc3)c2s1 [Ex. 148, 4-[6-ethyl-2,4-dioxo-1-{[2′-(5-oxo-4,5-dihydro-1,2,4-oxadiazol-3-yl)biphenyl-4-yl]methyl}-1,4-dihydrothieno[2,3-d]pyrimidin-3(2H)-yl]-2,2-dimethyl-3-oxobutyl acetate] | – |
| 1.8 | 50 | CCc1cc2c(=O)n(CC(O)C(C)(C)C)c(=O)n(Cc3ccc(-c4ccccc4-c4noc(=O)[nH]4)cc3)c2s1 (centres unmarked) [Ex. 149, 6-ethyl-3-(2-hydroxy-3,3-dimethylbutyl)-1-{[2′-(5-oxo-4,5-dihydro-1,2,4-oxadiazol-3-yl)biphenyl-4-yl]methyl}thieno[2,3-d]pyrimidine-2,4(1H,3H)-dione] | – |
| 1.5 | 33 | CCc1cc2c(=O)n(CC(=O)c3ccc(Cl)s3)c(=O)n(Cc3ccc(-c4ccccc4-c4noc(=O)[nH]4)cc3)c2s1 [Ex. 150, 3-[2-(5-chloro-2-thienyl)-2-oxoethyl]-6-ethyl-1-{[2′-(5-oxo-4,5-dihydro-1,2,4-oxadiazol-3-yl)biphenyl-4-yl]methyl}thieno[2,3-d]pyrimidine-2,4(1H,3H)-dione] | – |
| 1.5 | 40 | CCc1cc2c(=O)n(CC(O)c3ccc(OC)cc3)c(=O)n(Cc3ccc(-c4ccccc4-c4noc(=O)[nH]4)cc3F)c2s1 (centres unmarked) [Ex. 152, 6-ethyl-1-{[3-fluoro-2′-(5-oxo-4,5-dihydro-1,2,4-oxadiazol-3-yl)biphenyl-4-yl]methyl}-3-[2-hydroxy-2-(4-methoxyphenyl)ethyl]thieno[2,3-d]pyrimidine-2,4(1H,3H)-dione] | – |
| 1.3 | 39 | CCc1cc2c(=O)n(CC(OC(C)=O)c3ccc(OC)cc3)c(=O)n(Cc3ccc(-c4ccccc4-c4noc(=O)[nH]4)cc3F)c2s1 (centres unmarked) [Ex. 153, 2-[6-ethyl-1-{[3-fluoro-2′-(5-oxo-4,5-dihydro-1,2,4-oxadiazol-3-yl)biphenyl-4-yl]methyl}-2,4-dioxo-1,4-dihydrothieno[2,3-d]pyrimidin-3(2H)-yl]-1-(4-methoxyphenyl)ethyl acetate] | – |
| 1.9 | 51 | CCc1cc2c(=O)n(CC(C)(C)C)c(=O)n(Cc3ccc(-c4ccccc4-c4noc(=O)[nH]4)cc3)c2s1 [Ex. 154, 3-(2,2-dimethylpropyl)-6-ethyl-1-{[2′-(5-oxo-4,5-dihydro-1,2,4-oxadiazol-3-yl)biphenyl-4-yl]methyl}thieno[2,3-d]pyrimidine-2,4(1H,3H)-dione] | – |
| 1.4 | 35 | CCc1cc2c(=O)n(CC(=O)c3ccc(OC)c(F)c3)c(=O)n(Cc3ccc(-c4ccccc4-c4noc(=O)[nH]4)cc3F)c2s1 [Ex. 157, 6-ethyl-3-[2-(3-fluoro-4-methoxyphenyl)-2-oxoethyl]-1-{[3-fluoro-2′-(5-oxo-4,5-dihydro-1,2,4-oxadiazol-3-yl)biphenyl-4-yl]methyl}thieno[2,3-d]pyrimidine-2,4(1H,3H)-dione] | – |
| 1.7 | 30 | CCCc1cc2c(=O)n(CC(=O)c3ccc(OC)cc3)c(=O)n(Cc3ccc(-c4ccccc4-c4noc(=O)[nH]4)cc3F)c2s1 [Ex. 158, 1-{[3-fluoro-2′-(5-oxo-4,5-dihydro-1,2,4-oxadiazol-3-yl)biphenyl-4-yl]methyl}-3-[2-(4-methoxyphenyl)-2-oxoethyl]-6-propylthieno[2,3-d]pyrimidine-2,4(1H,3H)-dione] | – |
| 1.6 | 50 | CCc1cc2c(=O)n(-c3ccc(OC(C)C)cc3)c(=O)n(Cc3ccc(-c4ccccc4-c4noc(=O)[nH]4)cc3F)c2s1 [Ex. 180, 6-ethyl-1-{[3-fluoro-2′-(5-oxo-4,5-dihydro-1,2,4-oxadiazol-3-yl)biphenyl-4-yl]methyl}-3-(4-isopropoxyphenyl)thieno[2,3-d]pyrimidine-2,4(1H,3H)-dione] | – |
| 1.2 | 55 | CCc1cc2c(=O)n(-c3ccc4c(c3)CC(C)(C)O4)c(=O)n(Cc3ccc(-c4ccccc4-c4noc(=O)[nH]4)cc3F)c2s1 [Ex. 181, 3-(2,2-dimethyl-2,3-dihydro-1-benzofuran-5-yl)-6-ethyl-1-{[3-fluoro-2′-(5-oxo-4,5-dihydro-1,2,4-oxadiazol-3-yl)biphenyl-4-yl]methyl}thieno[2,3-d]pyrimidine-2,4(1H,3H)-dione] | – |
| 1.2 | 52 | CC(C)(C)C(=O)Cn1c(=O)c2cc(C3CC3)sc2n(Cc2ccc(-c3ccccc3-c3noc(=O)[nH]3)cc2)c1=O [Ex. 186, 6-cyclopropyl-3-(3,3-dimethyl-2-oxobutyl)-1-{[2′-(5-oxo-4,5-dihydro-1,2,4-oxadiazol-3-yl)biphenyl-4-yl]methyl}thieno[2,3-d]pyrimidine-2,4(1H,3H)-dione] | – |

| Structure (SMILES) | IC50 (AT1 receptor) [nM] | activation at 1 µM (PPARγ; [1]) [%] | activation at 1 µM (PPARγ) [%] |
| --- | --- | --- | --- |
| COc1ccc(C(=O)Cn2c(=O)c3cc(C4CC4)sc3n(Cc3c(F)cc(-c4ccccc4-c4noc(O)n4)cc3F)c2=O)cc1 [Ex. 135, 6-cyclopropyl-1-{[3,5-difluoro-2′-(5-oxo-4,5-dihydro-1,2,4-oxadiazol-3-yl)biphenyl-4-yl]methyl}-3-[2-(4-methoxyphenyl)-2-oxoethyl]thieno[2,3-d]pyrimidine-2,4(1H,3H)-dione potassium salt] | 1.5 | – | 71 |
| CCc1cc2c(=O)n(CC(=O)c3ccc(OC)cc3)c(=O)n(Cc3ccc(-c4ccccc4-c4noc(O)n4)cc3OC)c2s1 [Ex. 192, 6-ethyl-1-{[3-methoxy-2′-(5-oxo-4,5-dihydro-1,2,4-oxadiazol-3-yl)biphenyl-4-yl]methyl}-3-[2-(4-methoxyphenyl)-2-oxoethyl]thieno[2,3-d]pyrimidine-2,4(1H,3H)-dione potassium salt] | 2.3 | – | 49 |

— patent US8501750B2, “Heterocyclic compound and use thereof” (Takeda Pharmaceutical Company Limited, priority 2007, dated 2013)
